Measurements from ChEMBL document CHEMBL4483862, “Open-source discovery of chemical leads for next-generation chemoprotective antimalarials” (2018).

System: Plasmodium berghei
Experiment: Luciferase/luciferin-expressing antifolate-resistant parasites were used to infect a culture of HepG2 cells that were pre-incubated with compounds. Infected hepatocytes emit light due to the luciferase reaction. Assay results are presented as the percent inhibition of light emission compared to control. […]
Format: functional
Conditions: sporozoite; for IC90: read-out: LUCIFERASE INFECTION ASSAY - IC90
[1] = read-out: LUCIFERASE INFECTION ASSAY - IC50

Row | SMILES | IC90 [µM] | further results
1 | O=C(CN1CCN(c2ccc(C(F)(F)F)cn2)CC1)N1CCC(c2nc3ccccc3s2)CC1 | > 10 | IC50 (HEPG2TOX_HILL_SLOPE 13.7, HEPG2TOX_R_SQUARED 0.915, PBLUC_HILL_SLOPE 1.27, PBLUC_R_SQUARED 0.698, read-out: LUCIFERASE INFECTION ASSAY - IC50): 3.43 µM
2 | CC(C)(C)c1cc2nc(C(F)(F)F)cc(NNC(=O)Nc3ccccc3)n2n1 | > 8.41 | IC50 (PBLUC_HILL_SLOPE 3.27, PBLUC_R_SQUARED 0.167, read-out: LUCIFERASE INFECTION ASSAY - IC50): 5.36 µM
3 | O=S(=O)(c1ccc(Cl)c(NC(=S)N/N=C/c2ccc(O)cc2O)c1)N1CCOCC1 | 8.73 | IC50 (HEPG2TOX_HILL_SLOPE 2.35, HEPG2TOX_R_SQUARED 0.922, PBLUC_HILL_SLOPE 5.37, PBLUC_R_SQUARED 0.597, read-out: LUCIFERASE INFECTION ASSAY - IC50): 5.8 µM
4 | CC1(C(=O)NC2CCN(S(C)(=O)=O)CC2)CC1(Cl)Cl (configuration not stated) | > 10 | IC50 [1]: > 10 µM
5 | Cn1ncc2c(=O)n(Cc3sc4ccccc4c3Cl)cnc21 | > 10 | IC50 [1]: > 10 µM
6 | O=C(Nc1ccc(OC(F)(F)F)cc1)Nc1ccc2nc(-c3ccoc3)nn2c1 | > 10 | IC50 [1]: 10 µM
7 | Clc1ccc(-c2n[nH]cc2CNCC2CN(Cc3ccccc3)CCO2)cc1 (configuration not stated) | > 10 | IC50 (PBLUC_HILL_SLOPE 12.9, PBLUC_R_SQUARED 0.0772, read-out: LUCIFERASE INFECTION ASSAY - IC50): 9.51 µM
8 | C=CCOc1cccc(/C=C2/C(=O)Nc3cc(Cl)ccc32)c1 | > 10 | IC50 (FFLUC_HILL_SLOPE 17.6, FFLUC_R_SQUARED 0.397, HEPG2TOX_HILL_SLOPE 7.7, HEPG2TOX_R_SQUARED 0.755, PBLUC_HILL_SLOPE 12.7, PBLUC_R_SQUARED 0.0397, read-out: LUCIFERASE INFECTION ASSAY - IC50): 9.6 µM
9 | CC(C)CN1C(=O)N(Cc2ccccc2)C2(CCN(C3Cc4ccccc4C3)CC2)C1=O | > 7.65 | IC50 (PBLUC_HILL_SLOPE 12.6, PBLUC_R_SQUARED 0.313, read-out: LUCIFERASE INFECTION ASSAY - IC50): 7.2 µM
10 | Cn1nc(C(C)(C)C)cc1C(=O)Nc1ccc2nc(-c3cccnc3)nn2c1 | > 10 | IC50 (PBLUC_HILL_SLOPE 11.9, PBLUC_R_SQUARED 0.235, read-out: LUCIFERASE INFECTION ASSAY - IC50): > 10 µM
11 | COc1ccc(Cn2nc(C(=O)NC3CCCC3)c3c2CCN(C(=O)c2cc4ccccc4o2)C3)cc1 | > 6.62 | IC50 (PBLUC_HILL_SLOPE 3.73, PBLUC_R_SQUARED 0.19, read-out: LUCIFERASE INFECTION ASSAY - IC50): 4.5 µM
12 | N#CC(C#N)=NNc1cccc(Cl)c1 [CARBONYL CYANIDE M-CHLOROPHENYLHYDRAZONE] | 13.9 | IC50 [1]: 3.84 µM
13 | O=C(N/N=C/c1c(Cl)nc2ccccn2c1=O)c1ccc(F)cc1 | > 10 | IC50 [1]: > 10 µM
14 | CN(C(=O)CSc1nnc(COc2ccccc2F)n1N)C1CCCCC1 | 6.57 | IC50 (HEPG2TOX_HILL_SLOPE 2.33, HEPG2TOX_R_SQUARED 0.96, PBLUC_HILL_SLOPE 2.14, PBLUC_R_SQUARED 0.67, read-out: LUCIFERASE INFECTION ASSAY - IC50): 2.35 µM
15 | Cc1nc2n(C)c3ccccc3[n+]2c(C)c1C | > 10 | IC50 (HEPG2TOX_HILL_SLOPE 3.01, HEPG2TOX_R_SQUARED 0.767, PBLUC_HILL_SLOPE 4.79, PBLUC_R_SQUARED 0.113, read-out: LUCIFERASE INFECTION ASSAY - IC50): 6.7 µM
16 | CN(C)c1ccc(S(N)(=O)=O)cc1NC(=O)Cc1ccc(-c2ccccc2)cc1 | > 10 | IC50 (PBLUC_HILL_SLOPE 2.92, PBLUC_R_SQUARED 0.577, read-out: LUCIFERASE INFECTION ASSAY - IC50): 5.33 µM
17 | COc1ccc(-c2cnc3cnc(-c4ccsc4)cn23)cn1 | 9.71 | IC50 (PBLUC_HILL_SLOPE 12.3, PBLUC_R_SQUARED 0.383, read-out: LUCIFERASE INFECTION ASSAY - IC50): 8.12 µM
18 | O=C(N/N=C/c1cccc(O)c1O)c1ccc(CN2c3cccc4cccc(c34)S2(=O)=O)cc1 | > 10 | IC50 (FFLUC_HILL_SLOPE 14.9, FFLUC_R_SQUARED 0.808, read-out: LUCIFERASE INFECTION ASSAY - IC50): > 10 µM
19 | Nc1ccc(-c2cnc3ccc(Cc4ccc(F)cc4)nn23)cn1 | 0.455 | IC50 (HEPG2TOX_HILL_SLOPE 2.46, HEPG2TOX_R_SQUARED 0.531, PBLUC_HILL_SLOPE 14.2, PBLUC_R_SQUARED 0.359, read-out: LUCIFERASE INFECTION ASSAY - IC50): 0.39 µM
20 | Cc1nc(N2CCC(C)CC2)nc2c1C(=O)CC(/C=C/c1ccccc1)C2 (configuration not stated) | > 9.13 | IC50 [1]: > 9.13 µM
21 | Cn1c(CSc2nc3ccccc3s2)nn(CN2CCCc3ncccc32)c1=S | > 10 | IC50 [1]: > 10 µM

Row | SMILES | IC90 [µM] | further results
22 | Cc1cn2c(/C=C/C(=O)Nc3cccc(Cl)c3N3CCOCC3)c(C)nc2s1 | > 10 | IC50 [1]: > 10 µM
23 | Cc1ccnc(NC(=O)Cc2cnn(-c3ccccc3)c2)c1 | 9.95 | IC50 (HEPG2TOX_HILL_SLOPE 17.5, HEPG2TOX_R_SQUARED 0.943, PBLUC_HILL_SLOPE 16.3, PBLUC_R_SQUARED 0.0531, read-out: LUCIFERASE INFECTION ASSAY - IC50): 8.7 µM
24 | O=C(Nc1ccc[n+](Cc2ccccc2)c1)c1ccccc1-c1ccc(C(F)(F)F)cc1 | > 10 | IC50 (PBLUC_HILL_SLOPE 3.37, PBLUC_R_SQUARED 0.68, read-out: LUCIFERASE INFECTION ASSAY - IC50): 5.76 µM
25 | COc1cc(C(=O)NCCCn2ccc3ccccc32)cc(OC)c1C | > 10 | IC50 (HEPG2TOX_HILL_SLOPE 8.33, HEPG2TOX_R_SQUARED 0.471, PBLUC_HILL_SLOPE 17.9, PBLUC_R_SQUARED 0.367, read-out: LUCIFERASE INFECTION ASSAY - IC50): 9.65 µM
26 | Cc1cc(C)c(CSCCNC2=CC(=O)CC(c3ccc(Cl)cc3)C2)c(C)c1 (configuration not stated) | > 7.97 | IC50 [1]: > 7.97 µM
27 | O=C(CCN1CCN(c2ccccc2)CC1)N/N=C/c1cc(Br)ccc1O | > 10 | IC50 (HEPG2TOX_HILL_SLOPE 9.92, HEPG2TOX_R_SQUARED 0.702, PBLUC_HILL_SLOPE 4.41, PBLUC_R_SQUARED 0.46, read-out: LUCIFERASE INFECTION ASSAY - IC50): 6.08 µM
28 | COc1ccccc1NC(=O)/C=c1\s/c(=C\c2ccc(-c3ccccc3F)o2)c(=O)n1C | 3.75 | IC50 (HEPG2TOX_HILL_SLOPE 2.21, HEPG2TOX_R_SQUARED 0.937, PBLUC_HILL_SLOPE 21.9, PBLUC_R_SQUARED 0.468, read-out: LUCIFERASE INFECTION ASSAY - IC50): 3.39 µM
29 | CCCc1ccc(-c2csc(NC(=O)CC(NC(=O)c3ccccc3Cl)c3ccccc3)n2)cc1 (configuration not stated) | > 10 | IC50 (FFLUC_HILL_SLOPE 390, FFLUC_R_SQUARED 0.412, read-out: LUCIFERASE INFECTION ASSAY - IC50): > 10 µM
30 | Cc1cc(NCCN(C)C)n2nc(C(F)(F)F)c(-c3ccccc3)c2n1 | > 9.08 | IC50 (PBLUC_HILL_SLOPE 2.75, PBLUC_R_SQUARED 0.0665, read-out: LUCIFERASE INFECTION ASSAY - IC50): 5.68 µM
31 | COc1ccc(-c2cnc3ccc(NCc4ccc(S(N)(=O)=O)cc4)nn23)cn1 | > 8.04 | IC50 (HEPG2TOX_HILL_SLOPE 2.67, HEPG2TOX_R_SQUARED 0.289, PBLUC_HILL_SLOPE 3.8, PBLUC_R_SQUARED 0.626, read-out: LUCIFERASE INFECTION ASSAY - IC50): 4.71 µM
32 | Cc1ccc2nc(-c3ccc(N(C)C)cc3)[nH]c2c1 | 5.96 | IC50 (FFLUC_HILL_SLOPE 0.944, FFLUC_R_SQUARED 0.925, PBLUC_HILL_SLOPE 0.907, PBLUC_R_SQUARED 0.785, read-out: LUCIFERASE INFECTION ASSAY - IC50): 0.53 µM
33 | O=C(Nc1nc(-c2ccccn2)cs1)C1CCCN(C(=O)c2ccc(Cl)cc2)C1 (configuration not stated) | > 10 | IC50 (FFLUC_HILL_SLOPE 0.539, FFLUC_R_SQUARED 0.289, HEPG2TOX_HILL_SLOPE 0.153, HEPG2TOX_R_SQUARED 0.318, read-out: LUCIFERASE INFECTION ASSAY - IC50): > 10 µM
34 | O=C(CSc1ccccc1C(=O)N(Cc1ccco1)Cc1cccs1)NC12CC3CC(CC(C3)C1)C2 | 7.68 | IC50 (FFLUC_HILL_SLOPE 5.22, FFLUC_R_SQUARED 0.381, HEPG2TOX_HILL_SLOPE 38.7, HEPG2TOX_R_SQUARED 0.813, PBLUC_HILL_SLOPE 3.47, PBLUC_R_SQUARED 0.525, read-out: LUCIFERASE INFECTION ASSAY - IC50): 4.08 µM
35 | CCN(CC)CCn1c(NC(=O)c2cc3c(C)nn(-c4ccc(Cl)cc4)c3s2)nc2ccccc21 | > 10 | IC50 [1]: > 10 µM
36 | O=C(c1[nH]nc2ccccc12)N1CCN(S(=O)(=O)c2cccs2)CC1 | > 10 | IC50 (PBLUC_HILL_SLOPE 2.58, PBLUC_R_SQUARED 0.457, read-out: LUCIFERASE INFECTION ASSAY - IC50): 7.61 µM
37 | Cc1ccc(C(=O)Nc2nc3ccccc3[nH]2)cc1NC(=O)c1ccco1 | > 10 | IC50 (PBLUC_HILL_SLOPE 2.56, PBLUC_R_SQUARED 0.483, read-out: LUCIFERASE INFECTION ASSAY - IC50): 4.68 µM
38 | O=C(Nc1ccc(Cl)cc1)Nc1nc(-c2cc(Cl)c(Cl)s2)cs1 | 1.77 | IC50 [1]: 1.13 µM
39 | Clc1sc2ccccc2c1-c1nnc(SCc2nc3ccccn3c2Br)n1-c1ccccc1 | > 10 | IC50 (PBLUC_HILL_SLOPE 2.01, PBLUC_R_SQUARED 0.722, read-out: LUCIFERASE INFECTION ASSAY - IC50): 6.1 µM
40 | CCC(Nc1nc(C(F)(F)F)nc2ccccc12)c1ccc(Br)cc1 (configuration not stated) | > 10 | IC50 (PBLUC_HILL_SLOPE 5.54, PBLUC_R_SQUARED 0.0475, read-out: LUCIFERASE INFECTION ASSAY - IC50): > 10 µM
41 | O=C(c1ccsc1)N1CCc2nc(NCc3cccc(Oc4ccccc4)c3)ncc2C1 | > 7.46 | IC50 (HEPG2TOX_HILL_SLOPE 8.11, HEPG2TOX_R_SQUARED 0.885, read-out: LUCIFERASE INFECTION ASSAY - IC50): > 7.46 µM
